Laboratory results from patent US20080026996A1, “Selective Vpac2 Receptor Reptide Agonists” (ELI LILLY AND COMPANY, priority 2004, published 2008).
pEC50, pIC50: −log10 of the molar value. Where “and” joins values, the source holds several entries; their conditions need not be identical. Identical values can stand only once. Like-named read-outs stand apart in the source and are kept apart here. Where a SMILES comes first, the peptide text is derived from it. Where no end group is shown, it is not given here. [ ]: non-standard residue; d: D form. The star is where a group is joined. Hexanoyl = CCCCCC(=O)*; Aib = CC(C)(N)C(=O)O

Tests used:
human VPAC2 [1] = biological target: T1, human VPAC2 (Homo sapiens, UniProt P41587); test: Alpha screen cAMP in vitro potency, human VPAC2 receptor; assay type: cell-based
T1 construct: expressed in transfected cells
T1 sequence (P41587 24-438): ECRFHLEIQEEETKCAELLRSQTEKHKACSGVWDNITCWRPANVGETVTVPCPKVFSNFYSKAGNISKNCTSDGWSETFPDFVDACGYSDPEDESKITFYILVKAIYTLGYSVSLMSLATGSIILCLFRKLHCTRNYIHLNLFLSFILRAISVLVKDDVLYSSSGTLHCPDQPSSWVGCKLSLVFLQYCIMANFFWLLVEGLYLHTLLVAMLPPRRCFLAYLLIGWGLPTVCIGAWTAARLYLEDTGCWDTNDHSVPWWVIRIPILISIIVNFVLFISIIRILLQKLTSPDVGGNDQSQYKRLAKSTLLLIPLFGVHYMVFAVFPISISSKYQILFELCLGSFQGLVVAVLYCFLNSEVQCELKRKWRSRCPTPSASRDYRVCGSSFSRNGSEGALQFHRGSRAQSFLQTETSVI
Outline: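 Dissociated cells, 50,000 per point in stimulation buffer, were incubated with stimuli and AlphaScreen acceptor beads for 60 min.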

Normal Wistar rats = test: Intravenous glucose tolerance test (IVGTT); assay type: in vivo, rat; conditions: for % increase AUC: Dose = 0.5 μg/kg / % increase AUC: Dose = 10 μg/kg: IVGTT, insulin
Procedure: Intravenous glucose tolerance test (IVGTT): Normal Wistar rats are fasted overnight and are anesthetized prior to the experiment. A blood sampling catheter is inserted into the rats. The compound is given in the jugular vein. Blood samples are taken from the carotid artery. A blood sample is drawn immediately prior to the injection of glucose along with the compound. After the initial blood sample, glucose mixed with compound is injected intravenously (i.v.). A glucose challenge of 0.5 g/kg body weight is given, injecting a total of 1.5 mL vehicle with glucose and agonist per kg body weight. The peptide concentration vary to produce the desired dose in μg/kg. Blood samples are drawn at 2, 4, 6 and 10 minutes after giving glucose. The control group of animals receives the same vehicle along with glucose, but with no compound added. In some instances, a 30 minute post-glucose blood sample is drawn. Aprotinin is added to the blood sample (250 kIU/ml blood). The serum is then analyzed for glucose and insulin using standard methodologies.
The assay uses a formulated and calibrated peptide stock in PBS. Normally, this stock is a prediluted 100 μM stock. However, a more concentrated stock with approximately 1 mg agonist per mL is used. The specific concentration is always known. Variability in the maximal response is mostly due to variability in the vehicle dose.

human VPAC1 = biological target: T2, human VPAC1 (Homo sapiens, UniProt P32241); test: Filter binding assay, membranes of cells transiently transfected with human VPAC1, 125I-labeled VIP tracer (Table 2); parameters: expressed in transfected cells
T2 sequence (P32241 31-457): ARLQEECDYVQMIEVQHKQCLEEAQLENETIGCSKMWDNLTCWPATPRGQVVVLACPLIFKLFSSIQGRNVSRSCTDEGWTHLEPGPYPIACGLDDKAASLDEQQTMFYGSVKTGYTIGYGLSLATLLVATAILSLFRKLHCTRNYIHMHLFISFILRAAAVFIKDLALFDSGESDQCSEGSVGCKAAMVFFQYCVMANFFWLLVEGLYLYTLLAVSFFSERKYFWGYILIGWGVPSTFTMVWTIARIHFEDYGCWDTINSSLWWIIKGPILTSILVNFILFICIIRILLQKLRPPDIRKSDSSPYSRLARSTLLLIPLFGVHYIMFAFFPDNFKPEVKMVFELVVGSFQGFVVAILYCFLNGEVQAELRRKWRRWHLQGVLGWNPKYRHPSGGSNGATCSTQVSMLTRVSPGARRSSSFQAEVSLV
Outline: (§1)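 Scintillation counting of filter-retained radioligand gave the read-out. Compounds competed with the labelled tracer (about 40000 cpm) for 2.5 μg membranes during 1 hour of shaking in HEPES pH 7.4 buffer containing 0.5% BSA.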

human VPAC2 [2] = biological target: T1, human VPAC2; test: Filter binding assay, membranes of stable VPAC2 cell line, 125I-labeled VIP tracer (Table 2)
Outline: as §1

human PAC1 = biological target: T3, human PAC1 (Homo sapiens, UniProt P41586); test: Filter binding assay, membranes of cells transiently transfected with human PAC1, 125I-labeled PACAP-27 tracer (Table 2); parameters: expressed in transfected cells
T3 sequence (P41586 21-468): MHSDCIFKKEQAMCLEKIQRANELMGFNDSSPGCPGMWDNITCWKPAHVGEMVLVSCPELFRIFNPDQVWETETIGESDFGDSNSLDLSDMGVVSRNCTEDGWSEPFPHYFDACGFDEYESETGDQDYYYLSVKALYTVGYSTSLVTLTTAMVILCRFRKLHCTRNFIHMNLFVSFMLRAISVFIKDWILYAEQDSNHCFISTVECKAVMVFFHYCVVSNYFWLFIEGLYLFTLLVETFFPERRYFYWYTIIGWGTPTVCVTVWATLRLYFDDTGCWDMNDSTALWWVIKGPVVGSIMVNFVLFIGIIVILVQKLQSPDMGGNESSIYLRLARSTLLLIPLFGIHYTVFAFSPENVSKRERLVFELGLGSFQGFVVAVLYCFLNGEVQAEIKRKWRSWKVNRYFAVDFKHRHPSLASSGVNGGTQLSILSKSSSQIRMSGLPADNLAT
Outline: as §1

[3] = cAMP generation, single result from two analyses performed in a single run, read-out: Human VPAC2 Receptor: Alpha Screen EC50
[4] = read-out: Human VPAC1 Receptor Binding
[5] = read-out: Human VPAC2 Receptor Binding
[6] = read-out: Human PAC1 Receptor Binding

CCCCCC(=O)N[C@@H](Cc1c[nH]cn1)C(=O)N[C@@H](CO)C(=O)N[C@@H](CC(=O)O)C(=O)N[C@@H](C)C(=O)N[C@H](C(=O)N[C@@H](Cc1ccccc1)C(=O)N[C@H](C(=O)N[C@@H](CC(=O)O)C(=O)N[C@@H](CC(N)=O)C(=O)N[C@@H](Cc1ccc(O)cc1)C(=O)N[C@H](C(=O)N[C@@H](CCCNC(=N)N)C(=O)N[C@@H](CC(C)C)C(=O)N[C@@H](CCCNC(=N)N)C(=O)NC(C)(C)C(=O)N[C@@H](CCC(N)=O)C(=O)N[C@@H](CC(C)C)C(=O)N[C@@H](C)C(=O)N[C@@H](C)C(=O)NC(C)(C)C(=O)N[C@@H](CCCCN)C(=O)N[C@@H](Cc1ccc(O)cc1)C(=O)N[C@@H](CC(C)C)C(=O)N[C@@H](CCC(N)=O)C(=O)N[C@@H](CO)C(=O)N[C@H](C(=O)N[C@@H](CCCCN)C(=O)N[C@@H](CC(N)=O)C(=O)N[C@@H](CCCCN)C(=O)NCC(=O)NCC(=O)N1CCC[C@H]1C(=O)N[C@@H](CO)C(=O)N[C@@H](CO)C(=O)NCC(=O)N[C@@H](C)C(=O)N1CCC[C@H]1C(=O)N1CCC[C@H]1C(=O)N1CCC[C@H]1C(=O)N[C@@H](CO)C(=O)O)[C@@H](C)CC)[C@@H](C)O)[C@@H](C)O)C(C)C [Agonist P292] (Hexanoyl-HSDAVFTDNYTRLR[Aib]QLAA[Aib]KYLQSIKNKGGPSSGAPPPS-OH; C-terminus assumed)
pEC50 (human VPAC2 [1]; [3]): 9.64 | % increase AUC: Dose = 0.5 μg/kg (Normal Wistar rats): 292% | % increase AUC: Dose = 10 μg/kg (Normal Wistar rats): 370% | pIC50 (human VPAC1; [4]): < 5.52 | pIC50 (human VPAC2 [2]; [5]): 9.52 | pIC50 (human PAC1; [6]): < 4.60

H-MHSDAVFTDNYTRLRKQVAAKKYLQSIKNKRYGGPSSGAPPPS [Agonist P104]
pEC50 (human VPAC2 [1]): 9.57 | % increase AUC: Dose = 0.5 μg/kg (Normal Wistar rats): 142% and 205% | % increase AUC: Dose = 10 μg/kg (Normal Wistar rats): 198% and 370% | pIC50 (human VPAC1): 6.52 | pIC50 (human VPAC2 [2]): 9.17 | pIC50 (human PAC1): 6.93

Hexanoyl-HSDAVFTDNYTRLR[Aib]QVAAK[Aib]YLQSIKNKRYGGPSSGAPPPS [Agonist P264]
pEC50 (human VPAC2 [1]; [3]): 10.00 | % increase AUC: Dose = 0.5 μg/kg (Normal Wistar rats): 10% | % increase AUC: Dose = 10 μg/kg (Normal Wistar rats): 95% | pIC50 (human VPAC1; [4]): < 5.52 | pIC50 (human VPAC2 [2]; [5]): 9.06 | pIC50 (human PAC1; [6]): < 4.60

Hexanoyl-HSDAVFTDNYTRLR[Aib]QVAA[Aib]KYLQSIKNKRYGGPSSGAPPPS [Agonist P261]
pEC50 (human VPAC2 [1]; [3]): 10.05 | % increase AUC: Dose = 0.5 μg/kg (Normal Wistar rats): 136% | % increase AUC: Dose = 10 μg/kg (Normal Wistar rats): 320% | pIC50 (human VPAC1; [4]): 6.00 | pIC50 (human VPAC2 [2]; [5]): 9.70 | pIC50 (human PAC1; [6]): < 4.60

Hexanoyl-HSDAVFTDNYTRLLAKLALQKYLQSIKNKRYGGPSSGAPPPS [Agonist P119]
pEC50 (human VPAC2 [1]; [3]): 9.38 | IVGTT ED50 (Normal Wistar rats): 0.3 µg/kg | % increase AUC: Dose = 0.5 μg/kg (Normal Wistar rats): 118% | % increase AUC: Dose = 10 μg/kg (Normal Wistar rats): 240% | pIC50 (human VPAC1; [4]): < 5.52 | pIC50 (human VPAC2 [2]; [5]): 9.32 | pIC50 (human PAC1; [6]): < 4.60

Hexanoyl-HSDAVFTDNYTRLRKQVAAKKYLQSIKNKRYGGPSSGAPPPS [Agonist P31]
pEC50 (human VPAC2 [1]; [3]): 9.89 | % increase AUC: Dose = 0.5 μg/kg (Normal Wistar rats): 250% | pIC50 (human VPAC1; [4]): 6.84 | pIC50 (human VPAC2 [2]; [5]): 9.64 | pIC50 (human PAC1; [6]): 6.39
